This test concerns the target T1, calcium channel (guinea-pig isolated ileal longitudinal smooth muscle) (Cavia porcellus, UniProt O35505).
T1 construct: The longitudinal smooth muscle is carefully separated from the underlying circular muscle layer; from tissue; host or cells: guinea-pig ileal longitudinal smooth muscle
Kind of test: Calcium Channel Antagonist Activity in Guinea-Pig Isolated Ileal Smooth Muscle. In kind it is cell-based. The text has this:
Calcium Channel Antagonist Activity in Guinea-Pig Isolated Ileal Smooth Muscle.
Male albino guinea-pigs are sacrificed by stunning and exsanguination. The abdominal cavity is opened and the small intestine is removed, with about 10 cm of the terminal ileum being discarded. The tissue is placed in a dish containing Tyrode's solution (composition, mM: […]; KCl 2.68; NaHCO3 11.90; NaH2 PO4 0.36; MgCl2 0.98; CaCl2 1.77; dextrose 5.55), and cut into three to four segments. A glass rod (6 mm diameter) is carefully inserted into the lumen of each segment, and excess connective tissue or fat is removed. The longitudinal smooth muscle is carefully separated from the underlying circular muscle layer by gently stroking a moist cotton swab on a tangent to shallow, longitudinal incisions made parallel to the mesenteric attachment. Using gentle traction, and taking care to keep the segment moist at all times, the preparation is stripped from the remaining length of the ileal segment (Paton & Zar, J. Physiol. 194, 13; 1968).
Each preparation is suspended in a 10 mL jacketed glass tissue bath containing Tyrode's solution maintained at 37° C. and gassed with 5% CO2 in O2. The preparation is attached by silk thread to a force-displacement transducer. […] The initial resting tension is adjusted to 0.5 g and the preparation equilibrated for 55 minutes prior to experimentation. At the end of this period, the bathing solution is replaced with Ca^2+ -free Tyrode's solution. This solution is prepared by omitting CaCl2. The preparation is washed four times in Ca^2+ -free Tyrode 's to remove any Ca^2+ remaining in the bath, and allowed to equilibrate for a further 20 minutes.
Concentration-response curves to CaCl2 are obtained using the following procedure. Preparations are exposed to a depolarizing concentration of KCl (80 mM) for 6 minutes. At the end of this period CaCl2 is added to the bath cumulatively in the concentration range 0.2-8.0 mM. Successive additions of each Ca^2+ concentration are carried out only when the previous response has reached a plateau. When the maximum response has been attained the bath is again washed (five times) with Ca^2+ -free buffer, and the preparation re-equilibrated for approximately 15 minutes. A second Ca^2+ concentration-response curve is then obtained in the same manner. This second curve serves as control for that tissue.
Further curves are obtained in the presence of increasing concentrations of the test drugs. Where appropriate, the test drug is added to the bath immediately following addition of KCl, and 6 minutes later the concentration-response curve to Ca^2+ is obtained. Each test preparation is exposed to three different concentrations of a test drug.
For each ileal preparation, the control EC50 for Ca^2+ (the concentration producing 50% of the maximum response) is determined from the control concentration-response curve. Calcium blocking activity is defined as a Kb value (the concentration producing a two-fold dextral shift in the control curve), calculated from EC50 ratios in the absence and presence of test drugs.

Where [1] appears, read: Kb = concentration producing a two-fold dextral shift in the control CaCl2 concentration-response curve, KCl (80 mM) depolarized ileal smooth muscle, read-out: Calcium antagonist Kb.

Molecules are shown by their SMILES. Where a name gives a salt, the structure may show the parent alone. Read-outs that look alike come from different tables or passages of the source.

Broadly, the Kb is the equilibrium dissociation constant of an antagonist, usually derived from a functional assay.

T1 sequence (O35505 whole entry): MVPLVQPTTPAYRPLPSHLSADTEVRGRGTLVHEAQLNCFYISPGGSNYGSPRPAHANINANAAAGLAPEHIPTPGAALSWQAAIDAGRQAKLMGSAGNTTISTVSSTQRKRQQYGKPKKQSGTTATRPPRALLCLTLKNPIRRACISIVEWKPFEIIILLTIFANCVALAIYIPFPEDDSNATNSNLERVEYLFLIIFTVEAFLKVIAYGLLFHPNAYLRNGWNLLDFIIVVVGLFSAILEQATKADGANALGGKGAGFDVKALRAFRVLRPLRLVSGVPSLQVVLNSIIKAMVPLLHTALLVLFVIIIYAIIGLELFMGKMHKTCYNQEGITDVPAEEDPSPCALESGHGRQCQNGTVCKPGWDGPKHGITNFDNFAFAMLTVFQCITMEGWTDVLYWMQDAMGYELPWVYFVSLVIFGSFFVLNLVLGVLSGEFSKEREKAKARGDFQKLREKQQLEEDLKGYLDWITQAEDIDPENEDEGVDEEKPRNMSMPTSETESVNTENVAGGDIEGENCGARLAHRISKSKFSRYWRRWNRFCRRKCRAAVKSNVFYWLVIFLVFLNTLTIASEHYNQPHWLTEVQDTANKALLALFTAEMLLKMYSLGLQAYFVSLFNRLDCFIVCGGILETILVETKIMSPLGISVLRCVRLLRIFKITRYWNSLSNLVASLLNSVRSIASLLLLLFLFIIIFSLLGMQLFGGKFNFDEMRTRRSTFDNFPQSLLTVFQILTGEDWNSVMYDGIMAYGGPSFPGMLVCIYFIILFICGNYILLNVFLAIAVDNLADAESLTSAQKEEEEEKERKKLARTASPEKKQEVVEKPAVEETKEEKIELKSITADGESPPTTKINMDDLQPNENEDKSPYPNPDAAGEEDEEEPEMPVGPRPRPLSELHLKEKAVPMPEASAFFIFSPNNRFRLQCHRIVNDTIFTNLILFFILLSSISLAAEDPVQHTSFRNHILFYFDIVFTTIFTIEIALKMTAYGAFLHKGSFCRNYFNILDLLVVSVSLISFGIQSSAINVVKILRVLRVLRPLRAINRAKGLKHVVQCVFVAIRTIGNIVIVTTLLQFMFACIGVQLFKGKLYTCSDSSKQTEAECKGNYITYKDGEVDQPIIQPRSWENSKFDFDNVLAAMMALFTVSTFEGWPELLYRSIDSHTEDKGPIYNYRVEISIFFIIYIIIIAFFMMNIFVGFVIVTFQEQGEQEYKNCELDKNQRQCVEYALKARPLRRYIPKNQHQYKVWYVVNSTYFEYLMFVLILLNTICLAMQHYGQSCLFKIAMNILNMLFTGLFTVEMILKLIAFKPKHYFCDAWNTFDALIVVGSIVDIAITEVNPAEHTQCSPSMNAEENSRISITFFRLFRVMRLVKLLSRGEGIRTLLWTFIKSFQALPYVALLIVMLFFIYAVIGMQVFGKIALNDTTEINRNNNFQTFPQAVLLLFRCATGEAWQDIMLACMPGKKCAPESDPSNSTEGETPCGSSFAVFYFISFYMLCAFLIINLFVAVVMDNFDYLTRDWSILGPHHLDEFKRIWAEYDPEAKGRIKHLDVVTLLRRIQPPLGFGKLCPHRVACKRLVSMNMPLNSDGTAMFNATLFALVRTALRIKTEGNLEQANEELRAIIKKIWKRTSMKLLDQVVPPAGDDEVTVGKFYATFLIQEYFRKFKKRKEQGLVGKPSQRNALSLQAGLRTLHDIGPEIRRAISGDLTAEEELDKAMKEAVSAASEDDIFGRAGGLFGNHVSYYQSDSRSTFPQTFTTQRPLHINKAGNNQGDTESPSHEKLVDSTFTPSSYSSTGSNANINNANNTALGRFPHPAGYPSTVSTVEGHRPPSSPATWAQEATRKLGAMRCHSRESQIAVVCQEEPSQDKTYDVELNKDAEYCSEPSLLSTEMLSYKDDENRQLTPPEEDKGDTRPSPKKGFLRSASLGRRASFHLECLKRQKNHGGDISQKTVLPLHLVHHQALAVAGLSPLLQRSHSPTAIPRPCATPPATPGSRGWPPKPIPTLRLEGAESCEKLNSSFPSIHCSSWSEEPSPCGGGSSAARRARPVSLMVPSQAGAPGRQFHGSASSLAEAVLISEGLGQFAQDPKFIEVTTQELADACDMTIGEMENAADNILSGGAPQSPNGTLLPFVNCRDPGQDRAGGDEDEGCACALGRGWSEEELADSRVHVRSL

On to `CCN(CC)CC#CCCC1(C2(O)CCOc3ccccc32)SCCCS1` (stereo not drawn) [2(5-Diethylaminopent-3-ynyl)-2-(4-hydroxy-4H-chromanyl)-1,3-dithiane], for which the Kb under setting [1] was 1940 ± 210 nM.

Consider `CCN(CC)CC#CCCC1(C2(O)c3ccccc3-c3ccccc32)SCCCS1` [2(5-Diethylaminopent-3-ynyl)-2-(9-hydroxy-9H-fluoren-9-yl)-1,3-dithiane], for which the Kb under setting [1] was determined as 500 ± 100 nM.

Turning to `CCCN(CC#CCC1(c2ccccc2)SCCCS1)CCC` [2-(4-Dipropylaminobut-2-ynyl)-2-phenyl-1,3-dithiane, Oxalate], the Kb under setting [1] was determined as 1010 ± 150 nM.

On to `CCN(CC)CC#CCC1(c2ccccc2)SCCCS1` [2-(4-diethylaminobut-2-ynyl)-2-phenyl-1,3-dithiane oxalate], for which, under setting [1], the Kb was 4270 ± 430 nM.

Regarding `CCN(CC)CC#CCCC1SCCCS1` [2-(5-Diethylaminopent-3-ynyl)-1,3-dithiane Oxalate], under setting [1], the Kb is more than 10000 nM.

Take `CCN(CC)CC#CCCC1(C2(O)CCCc3ccccc32)SCCCS1` (stereo not drawn) [2-(5-Diethylaminopent-3-ynyl)-2-(1-hydroxy-1,2,3,4-tetrahydro-1-naphthyl)-1,3-dithiane Hemioxalate]: the Kb under setting [1] was determined as 830 ± 20 nM.

Consider `CCN(CC)CC#CCCC1(C2(O)c3ccccc3Sc3ccc(Cl)cc32)SCCCS1` (stereo not drawn) [2-(5-Diethylaminopent-3-ynyl)-2-(2-chloro-9-hydroxy-9H-thioxanthen-9-yl)-1,3-dithiane Oxalate], for which the Kb under setting [1] was determined as 330 ± 50 nM.

Take `CCN(CC)CC#CCCC1(C2(O)c3ccccc3C=Cc3ccccc32)SCCCS1` [2-(5-Diethylaminopent-3-ynyl)-2-(5-hydroxy-5H-dibenzo[a,d]cyclohepten-5-yl)-1,3-dithiane Oxalate]: under setting [1], the Kb was found to be 300 nM.

Turning to `CCN(CC)CC#CCCC1(C2(O)c3ccccc3Sc3ccccc32)SCCCS1` [2-(5-Diethylaminopent-3-ynyl)-2-(9-hydroxy-9H-thioxanthen-9-yl)-1,3-dithiane Oxalate], under setting [1], the Kb stood at 125 ± 18 nM.

For `CCN(CC)CC#CCCC1(C(O)(c2ccccc2)C2CCCCC2)SCCCS1` (stereo not drawn) [2-(5-Diethylaminopent-3-ynyl)-2-(α-cyclohexyl-α-hydroxybenzyl)-1,3-dithiane Hemioxalate], the Kb under setting [1] was 1140 ± 21 nM.

For the compound `CCN(CC)CC#CCCC1(C(O)(c2ccccc2)C2CCCC2)SCCCS1` (stereo not drawn) [2-(5-Diethylaminopent-3-ynyl)-2-(α-cyclopentyl-α-hydroxybenzyl-1,3-dithiane Oxalate], the Kb under setting [1] was 500 nM.

For the compound `CCN(CC)CC#CCCC1(C(C)(O)c2ccccc2)SCCCS1` (stereo not drawn) [2-(5-Diethylaminopent-3-ynyl)-2-(α-hydroxy-α-methylbenzyl)-1,3-dithiane], the Kb under setting [1] was 2510 ± 400 nM.

For `CCN(CC)CC#CCCC1(C(O)(c2ccccc2)c2ccccc2)SCCCS1` [2-(5-Diethylaminopent-3-ynyl)-2-(α-hydroxy-α-phenylbenzyl)-1,3-dithiane Oxalate], the Kb under setting [1] is 980 ± 160 nM.

`CCN(CC)CC#CCCC1(C(c2ccccc2)c2ccccc2)SCCCS1` [2-(5-Diethylaminopent-3-ynyl)-2-benzhydryl-1,3-dithiane Oxalate Hydrate]: the Kb under setting [1] was 500 nM.

Turning to `CCN(CC)CC#CCCC1(Cc2ccccc2)SCCCS1` [2-(5-Diethylaminopent-3-ynyl)-2-benzyl-1,3-dithiane Oxalate], the Kb under setting [1] is 1960 ± 400 nM.

As for `CCN(CC)CC#CCCC1(c2ccccc2)SCCCS1` [2-(5-Diethylaminopent-3-ynyl)-2-phenyl-1,3-dithiane Oxalate], the Kb under setting [1] is 900 ± 300 nM.

Turning to `CN(C)CC#CCCC1SCCCS1` [2-(5-Dimethylaminopent-3-ynyl)-1,3-dithiane Oxalate], the Kb under setting [1] is more than 10000 nM.

Take `CN(C)CC#CCCC1(C2(O)c3ccccc3Sc3ccc(Cl)cc32)SCCCS1` (stereo not drawn) [2-(5-Dimethylaminopent-3-ynyl)-2-(2-chloro-9-hydroxy-9H-thioxanthen-9-yl)-1,3-dithiane]: under setting [1], the Kb was 2330 ± 180 nM.

`CN(C)CC#CCCC1(C2(O)c3ccccc3-c3ccccc32)SCCCS1` [2-(5-Dimethylaminopent-3-ynyl)-2-(9-hydroxy-9H-fluoren-9-yl)-1,3-dithiane]: the Kb under setting [1] is 1810 ± 390 nM.

For `CN(C)CC#CCCC1(C2(O)c3ccccc3Sc3ccccc32)SCCCS1` [2-(5-Dimethylaminopent-3-ynyl)-2-(9-hydroxy-9H-thioxanthen-9-yl)-1,3-dithiane], the Kb under setting [1] is 680 ± 130 nM.

Turning to `CN(C)CC#CCCC1(C2(O)c3ccccc3Oc3ccccc32)SCCCS1` [2-(5-Dimethylaminopent-3-ynyl)-2-(9-hydroxy-9H-xanthen-9-yl)-1,3-dithiane], the Kb under setting [1] amounted to 1150 ± 200 nM.

Take `CCN(C)CC#CCCC1SCCCS1` [2-(5-Ethylmethylaminopent-3-ynyl)-1,3-dithiane Oxalate]: the Kb under setting [1] is more than 10000 nM.

On to `CCN(C)CC#CCCC1(C2(O)c3ccccc3Sc3ccc(Cl)cc32)SCCCS1` (stereo not drawn) [2-(5-Ethylmethylaminopent-3-ynyl)-2-(2-chloro-9-hydroxy-9H-thioxanthen-9-yl)-1,3-dithiane], for which, under setting [1], the Kb worked out at 2530 ± 1030 nM.

In the case of `CCN(C)CC#CCCC1(C2(O)c3ccccc3-c3ccccc32)SCCCS1` [2-(5-Ethylmethylaminopent-3-ynyl)-2-(9-hydroxy-9H-fluoren-9-yl)-1,3-dithiane], the Kb was found to be 1230 ± 470 nM.

In the case of `CCN(C)CC#CCCC1(C2(O)c3ccccc3Sc3ccccc32)SCCCS1` [2-(5-Ethylmethylaminopent-3-ynyl)-2-(9-hydroxy-9H-thioxanthen-9-yl)-1,3-dithiane], the Kb under setting [1] is 570 ± 120 nM.

Regarding `CCN(C)CC#CCCC1(C2(O)c3ccccc3Oc3ccccc32)SCCCS1` [2-(5-Ethylmethylaminopent-3-ynyl)-2-(9-hydroxy-9H-xanthen-9-yl)-1,3-dithiane], under setting [1], the Kb came to 1510 ± 530 nM.

As to `C(#CCN1CCCCC1)CCC1SCCCS1` [2-(5-Piperidinylpent-3-ynyl)-1,3-dithiane Oxalate], under setting [1], the Kb is more than 10000 nM.

Take `OC1(C2(CCC#CCN3CCCCC3)SCCCS2)c2ccccc2Sc2ccc(Cl)cc21` (stereo not drawn) [2-(5-Piperidinylpent-3-ynyl)-2-(2-chloro-9-hydroxy-9H-thioxanthen-9-yl)-1,3-dithiane]: the Kb under setting [1] was determined as 6090 ± 1560 nM.

Take `OC1(C2(CCC#CCN3CCCCC3)SCCCS2)c2ccccc2-c2ccccc21` [2-(5-Piperidinylpent-3-ynyl)-2-(9-hydroxy-9H-fluoren-9-yl)-1,3-dithiane]: the Kb under setting [1] came out at 1000 ± 70 nM.

Consider `OC1(C2(CCC#CCN3CCCCC3)SCCCS2)c2ccccc2Sc2ccccc21` [2-(5-Piperidinylpent-3-ynyl)-2-(9-hydroxy-9H-thioxanthen-9-yl)-1,3-dithiane], for which the Kb under setting [1] stood at 3660 ± 2040 nM.

Turning to `OC1(C2(CCC#CCN3CCCCC3)SCCCS2)c2ccccc2Oc2ccccc21` [2-(5-Piperidinylpent-3-ynyl)-2-(9-hydroxy-9H-xanthen-9-yl)-1,3-dithiane], under setting [1], the Kb came to 399 ± 40 nM.

For `C(#CCN1CCCC1)CCC1SCCCS1` [2-(5-Pyrrolidinylpent-3-ynyl)-1,3-dithiane Oxalate], the Kb under setting [1] is more than 10000 nM.

As for `CN(CC#CCCCC1SCCCS1)Cc1ccccc1` [2-(6-Benzylmethylaminohex-4-ynyl)-1,3-dithiane Oxalate], the Kb under setting [1] stood at 4450 ± 160 nM.

In the case of `CCN(CC)CC#CCCCC1SCCCS1` [2-(6-Diethylaminohex-4-ynyl)-1,3-dithiane Oxalate], the antagonist dissociation constant (Kb) under setting [1] was more than 10000 nM.

Consider `CCN(CC)CC#CCCCC1(C2(O)c3ccccc3-c3ccccc32)SCCCS1` [2-(6-Diethylaminohex-4-ynyl)-2-(9-hydroxy-9H-fluoren-9-yl)-1,3-dithiane], for which the antagonist equilibrium constant (Kb) under setting [1] stood at 810 ± 220 nM.

With `CCN(CC)CC#CCCCC1(C2(O)c3ccccc3Oc3ccccc32)SCCCS1` [2-(6-Diethylaminohex-4-ynyl)-2-(9-hydroxy-9H-xanthen-9-yl)-1,3-dithiane], under setting [1], the Kb was determined as 170 ± 20 nM.

`CCCN(CC#CCCCC1(C2(O)c3ccccc3-c3ccccc32)SCCCS1)CCC` [2-(6-Dipropylaminohex-4-ynyl)-2-(9-hydroxy-9H-fluoren-9-yl)-1,3-dithiane]: the antagonist dissociation constant (Kb) under setting [1] was 560 ± 80 nM.

With `CCCN(CC#CCCCC1(C2(O)c3ccccc3Sc3ccccc32)SCCCS1)CCC` [2-(6-Dipropylaminohex-4-ynyl)-2-(9-hydroxy-9H-thioxanthen-9-yl)-1,3-dithiane], the Kb under setting [1] is 770 nM.

Take `CCCN(CC#CCCCC1(C2(O)c3ccccc3Oc3ccccc32)SCCCS1)CCC` [2-(6-Dipropylaminohex-4-ynyl)-2-(9-hydroxy-9H-xanthen-9-yl)-1,3-dithiane]: the Kb under setting [1] came to 470 ± 150 nM.

The record behind these values is patent publication US4877779A, “2-aminomethylalkynylalkyl-1,3-dithiane derivatives” (priority 1988, dated 1989).
